Measured values reported in PubChem BioAssay (NCI).
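Tested at 5 concentrations; 48 h exposure; 96-well plates; endpoints linearly interpolated, else capped at highest concentration. Abbreviation: GI50, concentration required for 50% inhibition of growth. The concentration for full growth arrest is given as TGI.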

Experiments:
Experiment in all cases: growth of human tumour cells (NCI), 48 h
U251 CNS = system: U251 CNS
SN12C renal = system: SN12C renal
HCT-15 colon = system: HCT-15 colon
SK-MEL-28 melanoma = system: SK-MEL-28 melanoma
K-562 leukemia = system: K-562 leukemia
SK-MEL-2 melanoma = system: SK-MEL-2 melanoma
LOX IMVI melanoma = system: LOX IMVI melanoma
SF-539 CNS = system: SF-539 CNS
NCI-H522 lung = system: NCI-H522 lung
HS 578T breast = system: HS 578T breast

SMILES | TGI (U251 CNS) | TGI (SN12C renal) | TGI (HCT-15 colon) | TGI (SK-MEL-28 melanoma) | TGI (K-562 leukemia) | TGI (SK-MEL-2 melanoma) | TGI (LOX IMVI melanoma) | TGI (SF-539 CNS) | TGI (NCI-H522 lung) | GI50 (SN12C renal) | GI50 (NCI-H522 lung) | GI50 (HCT-15 colon) | GI50 (HS 578T breast) | TGI (HS 578T breast) | GI50 (SK-MEL-28 melanoma) | GI50 (K-562 leukemia) | GI50 (SK-MEL-2 melanoma) | GI50 (LOX IMVI melanoma) | GI50 (U251 CNS) | GI50 (SF-539 CNS)
Cc1nc2ccncc2[nH]1 | > 100 µM | > 100 µM | > 100 µM | > 100 µM | > 100 µM | > 100 µM | > 100 µM | > 100 µM |  |  |  |  |  |  |  |  |  |  |  | 
CC(C)(C)OC(=O)N[C@H]1CC(=O)c2ccccc2N(CC(=O)O)C1=O |  | > 100 µM | > 100 µM | > 100 µM |  | > 100 µM | > 100 µM | > 100 µM | > 100 µM |  |  |  |  |  |  |  |  |  |  | 
CCOC(=O)C1=C(C)N(NC(N)=O)C2(N)N(NC(N)=O)C(C)=C(C(=O)OCC)C12C#N (stereo unspecified) | > 100 µM | > 100 µM | > 100 µM | > 100 µM | > 100 µM | > 100 µM | > 100 µM | > 100 µM | > 100 µM |  |  |  |  |  |  |  |  |  |  | 
CN(C)C1C(=O)C(C(N)=O)=C(O)C2(O)C(=O)C3=C(O)c4c(O)cccc4C(C)(O)C3CC12.[Cl][Sb]([Cl])[Cl] (stereo unspecified) |  | 14.9 µM | 16.1 µM | 8.57 µM | 11.2 µM | 8.04 µM | 12.3 µM |  | 4.1 µM | 3.91 µM | 1.86 µM | 3.59 µM | 3 µM | > 100 µM | 2.81 µM | 3.26 µM | 2.99 µM | 2.63 µM |  | 
CC(C)(C)C1=NO[C@H]2[C@@H](NC(=O)c3ccccc3)CC[C@@H]12 | > 100 µM | > 100 µM | > 100 µM | > 100 µM | > 100 µM |  | > 100 µM | > 100 µM | > 100 µM |  |  |  |  |  |  |  |  |  |  | 
Cc1ccc(-n2nc(C(OC3OC(CO)C(O)C(O)C3O)C(O)CO)c3nc4cc(C)c(C)cc4nc32)cc1 (stereo unspecified) | > 100 µM | > 100 µM | > 100 µM | > 100 µM | > 100 µM |  | > 100 µM | > 100 µM | > 100 µM |  |  |  |  |  |  |  |  |  |  | 
COCOC1CCCC[C@@]1(OCCOCCO[C@@]1(c2ccccc2)CCCC[C@H]1OCOC)c1ccccc1 (stereo partly specified) | > 100 µM | > 100 µM |  | > 100 µM | > 100 µM | > 100 µM | > 100 µM |  | > 100 µM |  |  |  |  |  |  |  |  |  |  | 
N#Cc1ccccc1Sc1ccccc1N | > 100 µM | > 100 µM |  | > 100 µM | > 100 µM | > 100 µM | > 100 µM | > 100 µM |  |  |  |  |  |  |  |  |  |  |  | 
N#Cc1c(-c2ccccc2)c(-c2ccccc2)cc2c(=O)c3ccc(Cl)cc3[nH]c12 | > 100 µM | > 100 µM | > 100 µM | > 100 µM |  | > 100 µM |  | > 100 µM |  |  |  |  |  |  |  |  |  |  |  | 
CCCC(O)[C@@]1(CC)CC(C)C(O)(C2(C)C[C@H](C)[C@@H](C(CC)C(=O)C(C)[C@@H](O)[C@H](C)C3OC(O)(C(CC)C(=O)O)[C@@H](C)C(O)C3CC)O2)O1 (stereo partly specified) | 1.82 µM | 2.39 µM | 7.03 µM | 1.69 µM |  | 1.73 µM | 1.57 µM | 2.76 µM | 0.537 µM |  |  |  |  | 2.99 µM |  |  |  |  |  | 
CCCCCCCCCCCCCCCC(=O)OCC1OC(n2cc(F)c(=O)[nH]c2=O)C(NC(=O)OCc2ccccc2)C(O)C1O (stereo unspecified) | 31.4 µM | 38 µM | 34.4 µM |  | 31.8 µM | 32 µM | 32.5 µM | 30.9 µM |  |  |  |  |  |  |  |  |  |  |  | 
COc1ccc(/C=C/C(=O)c2c(-c3ccccc3)nn(C)c(=O)c2N2CCCCC2)cc1 | 30.1 µM | 64.2 µM | > 100 µM | 30.2 µM | 63 µM |  | 38.2 µM | 37.8 µM | 27.3 µM |  |  |  |  |  |  |  |  |  |  | 
O=C(O)c1ccccc1NCn1nc(-c2ccccc2O)oc1=S | > 100 µM | > 100 µM | 65.3 µM | > 100 µM | > 100 µM | > 100 µM | 38.9 µM |  | > 100 µM | 56.5 µM | > 100 µM | 24.6 µM | > 100 µM | > 100 µM | > 100 µM | 70.9 µM | > 100 µM | 19.4 µM | 48.3 µM | 
O=C1c2cccc3c(N4CCOCC4)ccc(c23)C(=O)N1CCN1CCN(CCCCCN2CCN(CCN3C(=O)c4cccc5c(N6CCOCC6)ccc(c45)C3=O)CC2)CC1 | > 100 µM | > 100 µM | > 100 µM | > 100 µM | > 100 µM |  | > 100 µM | > 100 µM |  | 57.4 µM |  | > 100 µM | > 100 µM | > 100 µM | > 100 µM | 36 µM |  | > 100 µM | > 100 µM | > 100 µM
CNC(=O)OCc1nc(SSc2nc(COC(=O)NC)c(COC(=O)NC)n2C)n(C)c1COC(=O)NC | > 100 µM | > 100 µM | > 100 µM | > 100 µM | > 100 µM | > 100 µM | > 100 µM | > 100 µM | > 100 µM |  |  |  |  |  |  |  |  |  |  | 
CC(C)c1ccc(Cc2ccc(C(C)C)c(NC(=O)C(=O)Cc3cnc4ccccc4n3)c2C(C)C)c(C(C)C)c1NC(=O)C(=O)Cc1cnc2ccccc2n1 | > 100 µM |  | > 100 µM |  | > 100 µM | > 100 µM | > 100 µM | > 100 µM |  |  |  |  |  |  |  |  |  |  |  | 
O=C([O-])c1ccc([I+]c2ccccc2)cc1 | > 100 µM | > 100 µM | > 100 µM |  | > 100 µM | > 100 µM | > 100 µM | > 100 µM | > 100 µM |  |  |  |  |  |  |  |  |  |  | 
O=C(O)c1ccccc1C(=O)c1ccco1 | > 100 µM | > 100 µM | > 100 µM | > 100 µM | > 100 µM | > 100 µM | > 100 µM | > 100 µM | > 100 µM |  |  |  |  |  |  |  |  |  |  | 
Cc1nc2sccn2c1C(=O)NNC(N)=S | > 100 µM | > 100 µM | > 100 µM | > 100 µM | > 100 µM | > 100 µM | > 100 µM | > 100 µM | > 100 µM |  |  |  |  |  |  |  |  |  |  | 
O=C1C=CC2(O)OCC3C=C4O[C@@H]5OC6(CCCCC6)O[C@@H]5C4[C@@H]2[C@@H]13 (stereo partly specified) | > 100 µM | > 100 µM | 58.7 µM | 44.7 µM | 44.8 µM | > 100 µM | > 100 µM |  | 27.9 µM |  |  |  |  |  |  |  |  |  |  | 
COS(=O)c1cc(Cl)cc(Cl)c1OC(=O)CSSCC(=O)Oc1c(Cl)cc(Cl)cc1S(=O)OC (stereo unspecified) | 20.6 µM | 37.3 µM | 45.1 µM | 33.8 µM | 51.1 µM | 51.4 µM | 43.8 µM | 47.6 µM | 30.2 µM |  |  |  |  |  |  |  |  |  |  | 
CC(C)(C)O/N=C/c1cc(NC(=S)c2ccccc2)ccc1Cl | 45.5 µM | 26 µM | 32.1 µM | 32.5 µM |  | 39.6 µM | 30.4 µM | 71.4 µM | 28.2 µM |  |  |  |  | 63 µM |  |  |  |  |  | 
